# Results: PubChem BioAssay (NCI)
#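 Test compounds were applied to cells in 96-well plates for 48 hours at 5 doses. TGI: total growth inhibition.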
# Columns and labels:
# Test in all cases: NCI-60 cell line screen, 48 h
# OVCAR-4 ovarian = tested on: OVCAR-4 ovarian
# CCRF-CEM leukemia = tested on: CCRF-CEM leukemia
# SK-MEL-28 melanoma = tested on: SK-MEL-28 melanoma
# MCF7 breast = tested on: MCF7 breast
# COLO 205 colon = tested on: COLO 205 colon
# A549 NSCLC = tested on: A549 NSCLC
# UACC-257 melanoma = tested on: UACC-257 melanoma
# NCI/ADR-RES ovarian = tested on: NCI/ADR-RES ovarian
# UACC-62 melanoma = tested on: UACC-62 melanoma
# SK-MEL-5 melanoma = tested on: SK-MEL-5 melanoma
# HCC-2998 colon = tested on: HCC-2998 colon
# IGROV1 ovarian = tested on: IGROV1 ovarian
# LOX IMVI melanoma = tested on: LOX IMVI melanoma
# HL-60(TB) leukemia = tested on: HL-60(TB) leukemia
# M14 melanoma = tested on: M14 melanoma
# MDA-N = tested on: MDA-N
# MDA-MB-435 = tested on: MDA-MB-435
# KM12 colon = tested on: KM12 colon
# MALME-3M melanoma = tested on: MALME-3M melanoma
# SNB-19 CNS = tested on: SNB-19 CNS
# SK-OV-3 ovarian = tested on: SK-OV-3 ovarian
# MOLT-4 leukemia = tested on: MOLT-4 leukemia
# RXF 393 renal = tested on: RXF 393 renal
# U251 CNS = tested on: U251 CNS
# OVCAR-3 ovarian = tested on: OVCAR-3 ovarian
# UO-31 renal = tested on: UO-31 renal
# PC-3 prostate = tested on: PC-3 prostate
# TK-10 renal = tested on: TK-10 renal
# HCT-15 colon = tested on: HCT-15 colon
# HCT-116 colon = tested on: HCT-116 colon
# DU-145 prostate = tested on: DU-145 prostate
# HOP-62 NSCLC = tested on: HOP-62 NSCLC
# HT29 colon = tested on: HT29 colon
# OVCAR-5 ovarian = tested on: OVCAR-5 ovarian
# HOP-92 NSCLC = tested on: HOP-92 NSCLC
# BT-549 breast = tested on: BT-549 breast
# K-562 leukemia = tested on: K-562 leukemia
# MDA-MB-231 breast = tested on: MDA-MB-231 breast
# ACHN renal = tested on: ACHN renal
# CAKI-1 renal = tested on: CAKI-1 renal
# A498 renal = tested on: A498 renal
# SW-620 colon = tested on: SW-620 colon
# NCI-H226 lung = tested on: NCI-H226 lung
# SF-295 CNS = tested on: SF-295 CNS
# SNB-75 CNS = tested on: SNB-75 CNS
# OVCAR-8 ovarian = tested on: OVCAR-8 ovarian
# EKVX NSCLC = tested on: EKVX NSCLC
# T-47D breast = tested on: T-47D breast
# 786-0 renal = tested on: 786-0 renal
# NCI-H23 lung = tested on: NCI-H23 lung
# NCI-H460 lung = tested on: NCI-H460 lung
# SK-MEL-2 melanoma = tested on: SK-MEL-2 melanoma
compound,measurement,setting,value
COc1ccc(Cc2nc3cc([N+](=O)[O-])ccc3n2C[C@@H]2CCCN3CCCCC23)cc1 (some centres not stated),TGI,OVCAR-4 ovarian,61.3 µM
same,TGI,CCRF-CEM leukemia,29.2 µM
same,TGI,SK-MEL-28 melanoma,35.1 µM
same,TGI,MCF7 breast,> 100 µM
same,TGI,COLO 205 colon,27 µM
same,TGI,A549 NSCLC,35 µM
same,TGI,UACC-257 melanoma,31.5 µM
same,TGI,NCI/ADR-RES ovarian,60.6 µM
same,TGI,UACC-62 melanoma,31.3 µM
same,TGI,SK-MEL-5 melanoma,27.9 µM
same,TGI,HCC-2998 colon,34.1 µM
same,TGI,IGROV1 ovarian,48.1 µM
same,TGI,LOX IMVI melanoma,36.4 µM
same,TGI,HL-60(TB) leukemia,19 µM
same,TGI,M14 melanoma,27.2 µM
same,TGI,MDA-N,33.8 µM
same,TGI,MDA-MB-435,38.1 µM
same,TGI,KM12 colon,29.8 µM
same,TGI,MALME-3M melanoma,32.1 µM
same,TGI,SNB-19 CNS,84.8 µM
same,TGI,SK-OV-3 ovarian,46.4 µM
same,TGI,MOLT-4 leukemia,60.1 µM
same,TGI,RXF 393 renal,39.8 µM
same,TGI,U251 CNS,50.6 µM
same,TGI,OVCAR-3 ovarian,41.1 µM
same,TGI,UO-31 renal,21.1 µM
same,TGI,PC-3 prostate,> 100 µM
same,TGI,TK-10 renal,92.8 µM
same,TGI,HCT-15 colon,56.5 µM
same,TGI,HCT-116 colon,38.2 µM
same,TGI,DU-145 prostate,> 100 µM
same,TGI,HOP-62 NSCLC,43.6 µM
same,TGI,HT29 colon,38.4 µM
same,TGI,OVCAR-5 ovarian,82 µM
same,TGI,HOP-92 NSCLC,76.8 µM
same,TGI,BT-549 breast,37.5 µM
same,TGI,K-562 leukemia,57.6 µM
same,TGI,MDA-MB-231 breast,43 µM
same,TGI,ACHN renal,> 100 µM
same,TGI,CAKI-1 renal,45.3 µM
same,TGI,A498 renal,35.2 µM
same,TGI,SW-620 colon,81.8 µM
same,TGI,NCI-H226 lung,> 100 µM
same,TGI,SF-295 CNS,35.8 µM
same,TGI,SNB-75 CNS,> 100 µM
same,TGI,OVCAR-8 ovarian,> 100 µM
same,TGI,EKVX NSCLC,76.5 µM
same,TGI,T-47D breast,> 100 µM
same,TGI,786-0 renal,40 µM
same,TGI,NCI-H23 lung,87.2 µM
same,TGI,NCI-H460 lung,> 100 µM
same,TGI,SK-MEL-2 melanoma,33.2 µM
